Experiments:
CDK2/CycE = CDK2/CycE (Homo sapiens (Human), UniProt P24941); assay: CDK2/CycE kinase assay (TR-FRET, 10 μM ATP); assay type: biochemical; details: Method 2a
Description: 2a. CDK2/CycE Kinase Assay:
CDK2/CycE-inhibitory activity of compounds of the present invention was quantified employing the CDK2/CycE TR-FRET assay as described in the following paragraphs:
Recombinant fusion proteins of GST and human CDK2 and of GST and human CycE, expressed in insect cells (Sf9) and purified by Glutathion-Sepharose affinity chromatography, were purchased from ProQinase GmbH (Freiburg, Germany). As substrate for the kinase reaction biotinylated peptide biotin-Ttds-YISPLKSPYKISEG (C-terminus in amid form) was used which can be purchased e.g. form the company JERINI Peptide Technologies (Berlin, Germany).
For the assay 50 nl of a 100 fold concentrated solution of the test compound in DMSO was pipetted into a black low volume 384 well microtiter plate (Greiner Bio-One, Frickenhausen, Germany), 2 μl of a solution of CDK2/CycE in aqueous assay buffer [50 mM Tris/HCl pH 8.0, 10 mM MgCl2, 1.0 mM dithiothreitol, 0.1 mM sodium ortho-vanadate, 0.01% (v/v) Nonidet-P40 (Sigma)] were added and the mixture was incubated for 15 min at 22° C. to allow pre-binding of the test compounds to the enzyme before the start of the kinase reaction. Then the kinase reaction was started by the addition of 3 μl of a solution of adenosine-tri-phosphate (ATP, 16.7 μM=>final conc. in the 5 μl assay volume is 10 μM) and substrate (1.25 μM=>final conc. in the 5 μl assay volume is 0.75 μM) in assay buffer and the resulting mixture was incubated for a reaction time of 25 min at 22° C. The concentration of CDK2/CycE was adjusted depending of the activity of the enzyme lot and was chosen appropriate to have the assay in the linear range, typical concentrations were in the range of 130 ng/mL. The reaction was stopped by the addition of 5 μl of a solution of TR-FRET detection reagents (0.2 μM streptavidine-XL665 [Cisbio Bioassays, Codolet, France] and 1 nM anti-RB(pSer807/pSer811)-antibody from BD Pharmingen [#558389] and 1.2 nM LANCE EU-W1024 labeled anti-mouse IgG antibody [Perkin-Elmer, product no. AD0077]) in an aqueous EDTA-solution (100 mM EDTA, 0.2% (w/v) bovine serum albumin in 100 mM HEPES/NaOH pH 7.0).
The resulting mixture was incubated 1 h at 22° C. to allow the formation of complex between the phosphorylated biotinylated peptide and the detection reagents. Subsequently the amount of phosphorylated substrate was evaluated by measurement of the resonance energy transfer from the Eu-chelate to the streptavidine-XL. Therefore, the fluorescence emissions at 620 nm and 665 nm after excitation at 350 nm was measured in a TR-FRET reader, e.g. a Rubystar (BMG Labtechnologies, Offenburg, Germany) or a Viewlux (Perkin-Elmer). The ratio of the emissions at 665 nm and at […] was taken as the measure for the amount of phosphorylated substrate. The data were normalised (enzyme reaction without inhibitor=0% inhibition, all other assay components but no enzyme=100% inhibition).

[1] = test system: HeLa-MaTu-ADR, multidrug-resistant human cervical carcinoma cells; assay: Proliferation assay, HeLa-MaTu-ADR (crystal violet); assay type: cell-based; details: 96 h, 4 days, read-out: Inhibition of HeLa-MaTu-ADR cell proliferation IC50
Description: (§1) Cultivated tumour cells (HeLa, human cervical tumour cells, ATCC CCL-2; NCI-H460, human non-small cell lung carcinoma cells, ATCC HTB-177; A2780, human ovarian carcinoma cells, ECACC #93112519; DU 145, hormone-independent human prostate carcinoma cells, ATCC HTB-81; HeLa-MaTu-ADR, multidrug-resistant human cervical carcinoma cells, EPO-GmbH Berlin; Caco-2, human colorectal carcinoma cells, ATCC HTB-37; B16F10, mouse melanoma cells, ATCC CRL-6475) were plated at a density of 5,000 cells/well (DU145, HeLa-MaTu-ADR), 3,000 cells/well (NCI-H460, HeLa), 2,500 cells/well (A2780), 1,500 cells/well (Caco-2), or 1,000 cells/well (B16F10) in a 96-well multititer plate in 200 μL of their respective growth medium supplemented 10% fetal calf serum. […] Cell proliferation was determined by staining the cells with crystal violet: the cells were fixed by adding 20 μl/measuring point of an 11% glutaric aldehyde solution for 15 minutes at room temperature. […] The extinction was determined by photometry at a wavelength of 595 nm. The change of cell number, in percent, was calculated by normalization of the measured values to the extinction values of the zero-point plate (=0%) and the extinction of the untreated (0 μm) cells (=100%). […]

[2] = test system: NCI-H460, human non-small cell lung carcinoma cells; assay: Proliferation assay, NCI-H460 (crystal violet); assay type: cell-based; details: 96 h, NCI-H460, 4 days, read-out: Inhibition of NCI-H460 cell proliferation IC50
Description: as §1

[3] = test system: DU 145, hormone-independent human prostate carcinoma cells; assay: Proliferation assay, DU145 (crystal violet); assay type: cell-based; details: DU-145, 96 h, DU145, 4 days, read-out: Inhibition of DU145 cell proliferation IC50
Description: as §1

[4] = test system: Caco-2, human colorectal carcinoma cells; assay: Proliferation assay, Caco-2 (crystal violet); assay type: cell-based; details: 96 h, Caco-2, 4 days, read-out: Inhibition of Caco-2 cell proliferation IC50
Description: as §1

[5] = test system: B16F10, mouse melanoma cells; assay: Proliferation assay, B16F10 (crystal violet); assay type: cell-based; details: B16-F10, 96 h, B16F10, 4 days, read-out: Inhibition of B16F10 cell proliferation IC50
Description: as §1

[6] = test system: A2780, human ovarian carcinoma cells; assay: Proliferation assay, A2780 (crystal violet); assay type: cell-based; details: 96 h, A2780, 4 days, read-out: Inhibition of A2780 cell proliferation IC50
Description: as §1

| IC50 (CDK2/CycE) [nM] | IC50 [1] [nM] | IC50 [2] [nM] | IC50 [3] [nM] | IC50 [4] [nM] | IC50 [5] [nM] | IC50 [6] [nM] | Compound |
| --- | --- | --- | --- | --- | --- | --- | --- |
| 170 | 37 | 62 | 56 | 70 | 100 | 28 | COc1cc(F)ccc1-c1cc(Nc2cc(CS(C)(=O)=O)ccn2)ncc1F [Example 1, 5-Fluoro-4-(4-fluoro-2-methoxyphenyl)-N-{4-[(methylsulfonyl)methyl]pyridin-2-yl}pyridin-2-amine] |
| 70 | 59 | 94 | 84 | 37 | 100 |  | COc1cc(F)ccc1-c1cc(Nc2cc(CS(C)(=O)=O)cc(C)n2)ncc1F [Example 2, 5-Fluoro-4-(4-fluoro-2-methoxyphenyl)-N-{6-methyl-4-[(methylsulfonyl)methyl]pyridin-2-yl}pyridin-2-amine] |
| 65 |  |  |  |  |  |  | COc1cc(F)ccc1-c1cc(Nc2cc(CS(C)(=O)=O)cc(F)n2)ncc1F [Example 3, 5-Fluoro-4-(4-fluoro-2-methoxyphenyl)-N-{6-fluoro-4-[(methylsulfonyl)methyl]pyridin-2-yl}pyridin-2-amine] |
| 52 |  |  |  |  |  |  | COc1cc(F)ccc1-c1cc(Nc2cc(CS(C)(=O)=O)cc(C(F)(F)F)n2)ncc1F [Example 4, 5-Fluoro-4-(4-fluoro-2-methoxyphenyl)-N-{4-[(methylsulfonyl)methyl]-6-(trifluoromethyl)pyridin-2-yl}pyridin-2-amine] |
| 7 |  |  |  |  |  |  | COc1cc(F)ccc1-c1cc(Nc2cc(CS(C)(=O)=O)cc(C(F)F)n2)ncc1F [Example 5, N-{6-(Difluoromethyl)-4-[(methylsulfonyl)methyl]pyridin-2-yl}-5-fluoro-4-(4-fluoro-2-methoxyphenyl)pyridin-2-amine] |
